“Also recorded” adds a separate entry of the source.
Key:
horny layer cells [1] = experiment: Screening of specular reflectance improvers: arithmetic average roughness (Sa) of exfoliated horny layer cells by AFM; type: cell-based; settings: for screening result: specular reflectance improver: 100 μl sample on horny layer cells, 30 minutes at 37° C., nine types of cosmetic ingredients screened
Description: The surface roughness of skin can be determined by measuring the surface of horny layer cells sampled with a strip of adhesive tape and the like using a microscope such as an atomic force microscope. Surface roughness can be calculated in terms of arithmetic average roughness (Sa) as defined in ISO25178 by acquiring 3D-scanned images captured using an atomic force microscope, correcting the inclination of the 3D shape by subtracting those images applicable to a Gaussian filter having a half width of 2 μm, displaying the images, and calculating the average of absolute values of the Z axis for each XY coordinate.
First, the arithmetic average roughness (Sa) of horny layer cells is measured (S11). Next, a sample is applied to the horny layer cells (S12). Then, the arithmetic average roughness (Sa) of the horny layer cells to which the sample has been applied is measured (S13). Next, the rate of decrease of the arithmetic average roughness (Sa) of the horny layer cells to which the sample was applied is determined relative to the arithmetic average roughness of the horny layer cells to which the sample was not applied (S14).
On the other hand, horny layer cells were exfoliated from the cheeks of the subjects using adhesive strips (Post-It®, 3M Corp.). Next, double-sided adhesive tape was adhered to a slide glass and the exfoliated horny layer cells were transferred to the slide glass. Moreover, the arithmetic average roughness (Sa) of five horny layer cells was measured using an AFM attached to the Optelics H1200A 3CCD real color confocal microscope (Lasertec Corp.) followed by determination of the average value thereof.
Horny layer cells were exfoliated from the cheeks of subjects using adhesive strips (Post-It®, 3M Corp.). Next, double-sided adhesive tape was adhered to a slide glass and the exfoliated horny layer cells were transferred to the slide glass. Moreover, the arithmetic average roughness (Sa) of five horny layer cells was measured using an AFM attached to the Optelics H1200A 3CCD real color confocal microscope (Lasertec Corp.) followed by determination of the average value thereof. Next, 100 μl of a candidate sample were dropped onto the horny layer cells followed by incubating for 30 minutes at 37° C. Moreover, arithmetic average roughness (Sa) of the aforementioned five horny layer cells was then measured in the same manner followed by determination of the average value thereof.

horny layer cells [2] = experiment: as above; type: cell-based; settings: trimethylglycine alone

## O=C(O)CO [glycolic acid]
Horny layer cells [1]
  screening result: specular reflectance improver: determined to be specular reflectance improvers
Horny layer cells [1]; concentration 4% by weight to 40% by weight, FIG. 20
  arithmetic average roughness (Sa) of horny layer cells: decreases significantly

## COc1ccc(C(=O)[O-])c(O)c1.[K+] [potassium 4-methoxysalicylate]
Horny layer cells [1]; 4-MSK at 0, 0.1, 1.0, 3.0 and 10.0% by weight, FIG. 8
  rate of decrease of arithmetic average roughness (Sa) of horny layer cells: dose-dependent increase in the rate of decrease of arithmetic average roughness (Sa) up to 3.0% by weight
Horny layer cells [1]
  screening result: specular reflectance improver: determined to be specular reflectance improvers
Horny layer cells [1]; concentration 3% by weight to 10% by weight, FIG. 13
  arithmetic average roughness (Sa) of horny layer cells: decreases significantly

## O=C([O-])c1ccccc1O.[Na+] [sodium salicylate, sodium 2-hydroxybenzoate]
Horny layer cells [1]
  screening result: specular reflectance improver: determined to be specular reflectance improvers

## C[N+](C)(C)CC(=O)[O-] [trimethylglycine]
Horny layer cells [1]; TMG alone at 0, 5 and 10% by weight, FIG. 9
  rate of decrease of arithmetic average roughness (Sa) of horny layer cells: does not have the effect of smoothing the horny layer or improving skin glow; also recorded: no differences in the rates of decrease of arithmetic average roughness (Sa); also recorded: did not have an effect on the rate of decrease of Sa
Horny layer cells [2]
  specular reflectance of the skin: confirmed to not be improved

— patent US10281267B2, “Method for evaluating flow of skin, method for examining skin glow improvers, and skin glow improver” (Shiseido Company, Ltd., priority 2014, dated 2019)
